Test results taken from the NIST ThermoML archive (doi:10.1021/je8001255).

Experiment: an = ratio of the nth substance listed, in mol/kg
Conditions: 100 kPa, Liquid; for electrical conductivity: Alternating current cell with electrodes

O=S(=O)([O-])[O-].[Cd+2] [cadmium sulfate] + O
Conditions	electrical conductivity, 278.15 K [S/m]	electrical conductivity, 283.15 K [S/m]	electrical conductivity, 288.15 K [S/m]	electrical conductivity, 293.15 K [S/m]	electrical conductivity, 298.15 K [S/m]	electrical conductivity, 303.15 K [S/m]	electrical conductivity, 308.15 K [S/m]	mass density, 298.15 K [kg/m3]
a1 = 0.00493	0.0507	0.0583	0.0658	0.0734	0.0813	0.0892	0.0972	998.06
a1 = 0.01043	0.092	0.105	0.119	0.132	0.146	0.16	0.174	999.18
a1 = 0.0299	0.209	0.239	0.269	0.298	0.328	0.358	0.387	1003.14
a1 = 0.0514	0.319	0.364	0.409	0.454	0.499	0.544	0.587	1007.53
a1 = 0.1001	0.537	0.612	0.687	0.761	0.836	0.91	0.981	1017.5
a1 = 0.2017	0.93	1.06	1.19	1.32	1.44	1.57	1.69	1038.74
a1 = 0.4092	1.61	1.83	2.05	2.27	2.49	2.71	2.92	1084.21
a1 = 0.6014	2.13	2.42	2.72	3.01	3.31	3.6	3.89	1129.51
a1 = 0.8202	2.6	2.97	3.33	3.7	4.07	4.43	4.8	1185.1
a1 = 1.001	2.96	3.38	3.79	4.21	4.63	5.05	5.47	1234.43
a1 = 1.209	3.1	3.56	4.01	4.47	4.95	5.42	5.9	1295.86
a1 = 1.378	3.16	3.63	4.11	4.6	5.1	5.61	6.12	1349.9
a1 = 1.486	3.13	3.62	4.11	4.61	5.12	5.65	6.18	1385.75
a1 = 1.609	3.04	3.53	4.02	4.53	5.06	5.6	6.14	1429.78
a1 = 1.798	2.8	3.28	3.77	4.28	4.81	5.36	5.91	1500.75
a1 = 1.939	2.53	2.99	3.46	3.95	4.47	5	5.55	1556.84

O=S(=O)([O-])[O-].[Co+2] [cobalt(II) sulfate] + O
Conditions	electrical conductivity, 278.15 K [S/m]	electrical conductivity, 283.15 K [S/m]	electrical conductivity, 288.15 K [S/m]	electrical conductivity, 293.15 K [S/m]	electrical conductivity, 298.15 K [S/m]	electrical conductivity, 303.15 K [S/m]	electrical conductivity, 308.15 K [S/m]	mass density, 298.15 K [kg/m3]
a1 = 0.00551	0.0574	0.066	0.0749	0.084	0.0933	0.103	0.112	997.94
a1 = 0.02535	0.2	0.229	0.26	0.291	0.322	0.354	0.385	1001.16
a1 = 0.05135	0.338	0.388	0.439	0.491	0.544	0.597	0.649	1005.36
a1 = 0.1014	0.58	0.665	0.752	0.841	0.93	1.02	1.11	1013.44
a1 = 0.2522	1.19	1.36	1.54	1.72	1.9	2.09	2.27	1038.18
a1 = 0.4949	1.97	2.25	2.55	2.86	3.16	3.47	3.78	1079.59
a1 = 0.7706	2.63	3.03	3.43	3.85	4.27	4.7	5.12	1129.58
a1 = 0.9827	2.99	3.44	3.91	4.39	4.89	5.39	5.89	1170.36
a1 = 1.151	3.17	3.66	4.17	4.7	5.23	5.78	6.33	1204.34
a1 = 1.257	3.23	3.73	4.26	4.81	5.37	5.94	6.52	1227.86
a1 = 1.519	3.19	3.71	4.26	4.84	5.43	6.04	6.66	1286.2
a1 = 1.719	3.03	3.59	4.17	4.76	5.37	6	6.65	1331.86

O=S(=O)([O-])[O-].[Cu+2] [copper sulfate] + O
Conditions	electrical conductivity, 278.15 K [S/m]	electrical conductivity, 283.15 K [S/m]	electrical conductivity, 288.15 K [S/m]	electrical conductivity, 293.15 K [S/m]	electrical conductivity, 298.15 K [S/m]	electrical conductivity, 303.15 K [S/m]	electrical conductivity, 308.15 K [S/m]	mass density, 298.15 K [kg/m3]
a1 = 0.00666	0.0666	0.0763	0.0863	0.0965	0.107	0.117	0.128	998.16
a1 = 0.02534	0.196	0.224	0.253	0.282	0.311	0.34	0.369	1001.26
a1 = 0.04942	0.319	0.365	0.412	0.459	0.506	0.553	0.598	1005.23
a1 = 0.09691	0.543	0.621	0.7	0.78	0.86	0.938	1.01	1013.09
a1 = 0.2535	1.17	1.34	1.51	1.68	1.85	2.02	2.19	1039.39
a1 = 0.3778	1.61	1.84	2.07	2.31	2.54	2.78	3	1060.88
a1 = 0.4881	1.95	2.23	2.52	2.81	3.1	3.39	3.68	1080.51
a1 = 0.6806	2.49	2.85	3.23	3.6	3.99	4.37	4.74	1115.98
a1 = 0.7935	2.75	3.15	3.57	4	4.43	4.87	5.29	1137.68
a1 = 0.9197	3	3.45	3.92	4.4	4.88	5.37	5.85	1162.72
a1 = 1.037	3.22	3.7	4.21	4.73	5.25	5.79	6.32	1186.79
a1 = 1.138	3.34	3.85	4.39	4.94	5.51	6.08	6.66	1208.14
a1 = 1.198	3.4	3.93	4.48	5.06	5.64	6.24	6.83	1220.58

O=S(=O)([O-])[O-].[Mn+2] [manganese(II) sulfate] + O
Conditions	electrical conductivity, 278.15 K [S/m]	electrical conductivity, 283.15 K [S/m]	electrical conductivity, 288.15 K [S/m]	electrical conductivity, 293.15 K [S/m]	electrical conductivity, 298.15 K [S/m]	electrical conductivity, 303.15 K [S/m]	electrical conductivity, 308.15 K [S/m]	mass density, 298.15 K [kg/m3]
a1 = 0.00499	0.0524	0.06	0.068	0.0761	0.0844	0.0928	0.101	997.79
a1 = 0.00999	0.0922	0.106	0.119	0.134	0.148	0.162	0.177	998.55
a1 = 0.01997	0.16	0.183	0.207	0.231	0.255	0.279	0.303	1000.02
a1 = 0.05028	0.333	0.38	0.428	0.477	0.526	0.575	0.622	1004.5
a1 = 0.1005	0.575	0.656	0.739	0.822	0.905	0.987	1.07	1011.91
a1 = 0.1991	1.01	1.15	1.29	1.44	1.58	1.72	1.86	1026.55
a1 = 0.3159	1.39	1.59	1.78	1.98	2.18	2.37	2.56	1044.23
a1 = 0.4963	1.93	2.2	2.47	2.75	3.03	3.3	3.57	1072.29
a1 = 0.7442	2.5	2.85	3.21	3.57	3.93	4.29	4.65	1112.53
a1 = 0.9865	2.95	3.36	3.79	4.22	4.65	5.08	5.5	1153.87
a1 = 1.208	3.07	3.51	3.97	4.44	4.91	5.38	5.85	1194.32
a1 = 1.384	3.1	3.57	4.04	4.53	5.03	5.52	6.02	1227.02
a1 = 1.653	2.98	3.44	3.93	4.43	4.95	5.46	5.98	1280.18
a1 = 1.826	2.78	3.25	3.72	4.21	4.72	5.23	5.75	1318.47
a1 = 2.082	2.41	2.84	3.29	3.76	4.25	4.74	5.24	1371.35
a1 = 2.189	2.19	2.6	3.02	3.47	3.93	4.41	4.89	1398.09
a1 = 2.434	1.6	1.93	2.28	2.66	3.06	3.48	3.9	1452.93

O=S(=O)([O-])[O-].[Ni+2] [nickel monosulfate] + O
Conditions	electrical conductivity, 278.15 K [S/m]	electrical conductivity, 283.15 K [S/m]	electrical conductivity, 288.15 K [S/m]	electrical conductivity, 293.15 K [S/m]	electrical conductivity, 298.15 K [S/m]	electrical conductivity, 303.15 K [S/m]	electrical conductivity, 308.15 K [S/m]	mass density, 298.15 K [kg/m3]
a1 = 0.006	0.0606	0.0696	0.079	0.0886	0.0984	0.108	0.119	998.02
a1 = 0.02566	0.192	0.221	0.25	0.28	0.31	0.341	0.372	1001.23
a1 = 0.04922	0.321	0.368	0.417	0.467	0.517	0.568	0.618	1005.09
a1 = 0.122	0.656	0.753	0.852	0.954	1.06	1.16	1.26	1017.09
a1 = 0.25	1.18	1.36	1.54	1.72	1.91	2.09	2.28	1038.54
a1 = 0.3674	1.55	1.78	2.01	2.25	2.5	2.75	2.99	1058.67
a1 = 0.4988	1.94	2.23	2.52	2.83	3.14	3.45	3.76	1081.77
a1 = 0.68	2.39	2.75	3.12	3.51	3.9	4.29	4.63	1114.8
a1 = 0.7969	2.64	3.04	3.45	3.88	4.31	4.75	5.19	1136.9
a1 = 1.022	2.99	3.46	3.94	4.44	4.95	5.47	5.99	1181.4
a1 = 1.156	3.13	3.62	4.13	4.67	5.22	5.77	6.34	1208.94
a1 = 1.394	3.21	3.73	4.29	4.87	5.47	6.08	6.7	1260.5
a1 = 1.601	3.11	3.64	4.2	4.8	5.42	6.06	6.7	1308
a1 = 1.783	2.89	3.42	3.99	4.59	5.22	5.86	6.53	1351.92
